Laboratory results taken from US8535904B2, “Method of enhancing skin barrier function” (Pola Chemical Industries Inc., priority 2006, dated 2013).

What was measured:
[1] = test system: normal human epidermal keratinocytes (NHEK); experiment: Calcium ion permeation through cultured normal human epidermal keratinocyte layer (Transwell, Arsenazo III quantification); format: cell-based; details: 10^-1% test substance; calcium loaded concentration 5 mM; control = test substance concentration 0; FIG. 5/FIG. 6
Experimental: Frozen normal human epidermal keratinocytes (NHEK) (manufactured by Kurabo Industries Ltd.) were thawed and cultured in a 0.15 mM Ca-containing culture medium (Humedia-KG2; manufactured by Kurabo Industries Ltd.) at 37° C. in 50% carbon dioxide atmosphere. A Transwell (registered trademark) manufactured by Corning Incorporated (diameter 12 mm, polyethylene terephthalate, 0.4 μm pore) was placed on a Millicell (registered trademark) tissue culture plate (manufactured by Millipore), and the above-mentioned culture medium was added in amounts of 1.5 ml to the lower layer and 0.5 ml to the upper layer. […]
The recovered samples were quantified with quantification reagents {Ca-Arsenazo-III, Mg-Xylidyl blue I (both are manufactured by Fluka)}. […] The net flux (mass transfer per unit time and unit area) was calculated from the quantification results, and Ca and Mg ion permeability coefficients were calculated by the following formula.
a) 7.76 mg of Arsenazo III was dissolved in 100 μl of 1N NaOH, and the volume of the solution was adjusted to 50 ml with the apical solution for Ca prepared in Table 1 (Ca quantification solution). […]
c) In order to quantify Ca in a sample, the Ca quantification solution and the sample were each added to the plate in an amount of 50 μl/well to measure ODs (600). […]

[2] = test system: normal human epidermal keratinocytes (NHEK); experiment: TER (transepithelial electrical resistance) of cultured normal human epidermal keratinocyte layer; format: cell-based; details: 10^-4 v/v % in culture medium; TER measured at addition and 1, 2, 3, 4 days later; FIG. 7
Experimental: Frozen normal human epidermal keratinocytes (NHEK) (manufactured by Kurabo Industries Ltd.) were thawed and cultured in a 0.15 mM Ca-containing culture medium (Humedia-KG2; manufactured by Kurabo Industries Ltd.) at 37° C. in […] atmosphere. A Transwell manufactured by Corning Incorporated (diameter 12 mm, polyethylene terephthalate, 0.4 μm pore) was placed on a Millicell tissue culture plate (manufactured by Millipore), and the above-mentioned culture medium was added in amounts of 0.5 ml to the upper layer and 1.5 ml to the lower layer. Then, the normal human epidermal keratinocytes (NHEK) were inoculated at 1×10^5/cm^2 and cultured for additional 72 hours. […] Thereafter, the medium was exchanged for a culture medium containing 10^−4 v/v % α,ε-bis(γ-N-lauroylglutamyl)lysine (Pellicer L-30 (registered trademark) (hereinafter, referred to as Pellicer); manufactured by Asahi Kasei Corporation), and TERs were measured. The culture was further continued, and one, two, three, and four days later, TERs were measured.
Frozen normal human epidermal keratinocytes (NHEK) (manufactured by Kurabo Industries Ltd.) were thawed and cultured in a 0.15 mM Ca-containing culture medium (Humedia-KG2; manufactured by Kurabo Industries Ltd.) at 37° C. in 50% carbon dioxide atmosphere. […] The culture was further continued, and one, two, three, and four days later, TERs were measured.

Row | Structure (SMILES) | inhibition of the transference of a calcium ion (calcium ion permeation ratio vs control) [1] | TER (resistance value) compared with the control [2]
1 | C[N+](C)(C)C[C@H](O)CC(=O)[O-] [L-carnitine, reference compound] | had ability to inhibit the transference of a calcium ion | 
2 | N[C@@H](CCCCNC(=O)CC[C@H](N)C(=O)O)C(=O)O [ε,γ-glutamyl lysine] | had ability to inhibit the transference of the calcium ion | 
3 | CCCCCCCCCCCC(=O)N[C@@H](CCC(=O)NCCCC[C@H](NC(=O)CC[C@H](NC(=O)CCCCCCCCCCC)C(=O)O)C(=O)O)C(=O)O [Pellicer, α,ε-bis(γ-N-lauroylglutamyl)lysine] |  | increased resistance value compared with the control
